This series relates to CCRIS mutagenicity, Ames/micronucleus/aberration tests. In words: CCRIS mutagenicity studies.
The mark [1] stands for this setting: Test System: AMES SALMONELLA TYPHIMURIUM, Strain/Indicator: TA98, Metabolic Activation: NONE, Method: STANDARD PLATE.
The mark [2] stands for this setting: Test System: AMES SALMONELLA TYPHIMURIUM, Strain/Indicator: TA100, Metabolic Activation: NONE, Method: STANDARD PLATE.

The source made the active and inactive calls. How the calls were made is not given here.

As to `CC(=O)OC/N=[N+](/C)[O-]`, the mutagenic call by setting is: (Test System: AMES SALMONELLA TYPHIMURIUM, Strain/Indicator: G46, Metabolic Activation: NONE, Method: PREINCUBATION) “active; positive”; (Test System: AMES SALMONELLA TYPHIMURIUM, Strain/Indicator: TA1535, Metabolic Activation: NONE, Method: STANDARD PLATE) “active; positive”; (Test System: CHINESE HAMSTER V-79, Strain/Indicator: V-79/OUABAIN, Metabolic Activation: NONE, Method: STANDARD PLATE) “active; positive”; (Test System: E. COLI, Strain/Indicator: WP2 UVRA, Metabolic Activation: HAMSTER, LIVER, S-9, AROCLOR 1254, Method: PREINCUBATION) “inactive; negative”; (Test System: E. COLI, Strain/Indicator: WP2 UVRA, Metabolic Activation: HAMSTER, LIVER, S-9, AROCLOR 1254, Method: STANDARD PLATE) “inactive; negative”; (Test System: E. COLI, Strain/Indicator: WP2 UVRA, Metabolic Activation: HAMSTER, LIVER, S-9, Method: PREINCUBATION) “inactive; negative”. For the same compound, the mutagenic call runs as follows: (Test System: E. COLI, Strain/Indicator: WP2 UVRA, Metabolic Activation: HAMSTER, LIVER, S-9, Method: STANDARD PLATE) “inactive; negative”; (Test System: E. COLI, Strain/Indicator: WP2 UVRA, Metabolic Activation: MOUSE, LIVER, S-9, AROCLOR 1254, Method: PREINCUBATION) “inactive; negative”; (Test System: E. COLI, Strain/Indicator: WP2 UVRA, Metabolic Activation: MOUSE, LIVER, S-9, AROCLOR 1254, Method: STANDARD PLATE) “inactive; negative”; (Test System: E. COLI, Strain/Indicator: WP2 UVRA, Metabolic Activation: MOUSE, LIVER, S-9, Method: PREINCUBATION) “inactive; negative”; (Test System: E. COLI, Strain/Indicator: WP2 UVRA, Metabolic Activation: MOUSE, LIVER, S-9, Method: STANDARD PLATE) “inactive; negative”; (Test System: E. COLI, Strain/Indicator: WP2 UVRA, Metabolic Activation: NONE, Method: PREINCUBATION) “inactive; negative”. In addition, the mutagenic call by setting is: (Test System: E. COLI, Strain/Indicator: WP2 UVRA, Metabolic Activation: NONE, Method: STANDARD PLATE) “inactive; negative”; (Test System: E. COLI, Strain/Indicator: WP2 UVRA, Metabolic Activation: RAT, LIVER, S-9, AROCLOR 1254, Method: PREINCUBATION) “inactive; negative”; (Test System: E. COLI, Strain/Indicator: WP2 UVRA, Metabolic Activation: RAT, LIVER, S-9, AROCLOR 1254, Method: STANDARD PLATE) “inactive; negative”; (Test System: E. COLI, Strain/Indicator: WP2 UVRA, Metabolic Activation: RAT, LIVER, S-9, Method: PREINCUBATION) “inactive; negative”; (Test System: E. COLI, Strain/Indicator: WP2 UVRA, Metabolic Activation: RAT, LIVER, S-9, Method: STANDARD PLATE) “inactive; negative”; (Test System: MOUSE LYMPHOMA, Strain/Indicator: L5178Y (TK+/TK-), Metabolic Activation: NONE, Method: SUSPENSION/PLATE) “active; positive”. The mutagenic call (Test System: MOUSE LYMPHOMA, Strain/Indicator: L5178Y (TK+/TK-), Metabolic Activation: RAT, LIVER, S-9, AROCLOR 1254, Method: SUSPENSION/PLATE) was “active; positive”.
Turning to `Nc1ccc2[nH]c3ccccc3c2c1`, the mutagenic call is, setting by setting: under setting [1], “inactive; negative”; (Test System: AMES SALMONELLA TYPHIMURIUM, Strain/Indicator: TA98, Metabolic Activation: RAT LIVER S-9, AROCLOR 1254, Method: STANDARD PLATE) “active; positive”; (Test System: AMES SALMONELLA TYPHIMURIUM, Strain/Indicator: TA98, Metabolic Activation: RAT, LIVER, S-9, PHENOBARBITAL, Method: STANDARD PLATE) “active; positive”; under setting [2], “inactive; negative”; (Test System: AMES SALMONELLA TYPHIMURIUM, Strain/Indicator: TA100, Metabolic Activation: RAT LIVER S-9, AROCLOR 1254, Method: STANDARD PLATE) “inactive; negative”; (Test System: AMES SALMONELLA TYPHIMURIUM, Strain/Indicator: TA100, Metabolic Activation: RAT, LIVER, S-9, PHENOBARBITAL, Method: STANDARD PLATE) “inactive; negative”. For the same compound, the mutagenic call is, setting by setting: (Test System: AMES SALMONELLA TYPHIMURIUM, Strain/Indicator: TA1537, Metabolic Activation: NONE, Method: STANDARD PLATE) “inactive; negative”; (Test System: AMES SALMONELLA TYPHIMURIUM, Strain/Indicator: TA1537, Metabolic Activation: RAT, LIVER, S-9, PHENOBARBITAL, Method: STANDARD PLATE) “inactive; negative”; (Test System: AMES SALMONELLA TYPHIMURIUM, Strain/Indicator: TA1538, Metabolic Activation: NONE, Method: STANDARD PLATE) “inactive; negative”; (Test System: AMES SALMONELLA TYPHIMURIUM, Strain/Indicator: TA1538, Metabolic Activation: RAT, LIVER, S-9, PHENOBARBITAL, Method: STANDARD PLATE) “active; positive”; (Test System: AMES SALMONELLA TYPHIMURIUM, Strain/Indicator: TA1977, Metabolic Activation: NONE, Method: STANDARD PLATE) “inactive; negative”; (Test System: AMES SALMONELLA TYPHIMURIUM, Strain/Indicator: TA1977, Metabolic Activation: RAT, LIVER, S-9, PHENOBARBITAL, Method: STANDARD PLATE) “inactive; negative”.
For the compound `O=[N+]([O-])C1=Cc2cccc3cccc1c23`, under setting [1], the mutagenic call is “active; positive”.
With `O=C(O)/C=C/c1ccc([N+](=O)[O-])cc1`, the mutagenic call by setting is: (Test System: AMES SALMONELLA TYPHIMURIUM, Strain/Indicator: TA98(1,8-DNP6), Metabolic Activation: NONE, Method: PREINCUBATION) “active; positive”; (Test System: AMES SALMONELLA TYPHIMURIUM, Strain/Indicator: TA98(1,8-DNP6), Metabolic Activation: RAT, LIVER, S-9, AROCLOR 1254, Method: PREINCUBATION) “active; positive”; (Test System: AMES SALMONELLA TYPHIMURIUM, Strain/Indicator: TA98(NR), Metabolic Activation: NONE, Method: PREINCUBATION) “active; positive”; (Test System: AMES SALMONELLA TYPHIMURIUM, Strain/Indicator: TA98(NR), Metabolic Activation: RAT, LIVER, S-9, AROCLOR 1254, Method: PREINCUBATION) “active; positive”; (Test System: AMES SALMONELLA TYPHIMURIUM, Strain/Indicator: TA98, Metabolic Activation: NONE, Method: PREINCUBATION) “active; positive”; under setting [1], “active; positive”. Besides, the mutagenic call is “active; positive” (Test System: AMES SALMONELLA TYPHIMURIUM, Strain/Indicator: TA98, Metabolic Activation: RAT, LIVER, S-9, AROCLOR 1254, Method: PREINCUBATION); “active; positive” (Test System: AMES SALMONELLA TYPHIMURIUM, Strain/Indicator: TA98, Metabolic Activation: RAT, LIVER, S-9, AROCLOR 1254, Method: STANDARD PLATE); “active; positive” (Test System: AMES SALMONELLA TYPHIMURIUM, Strain/Indicator: TA100(1,8-DNP6), Metabolic Activation: NONE, Method: PREINCUBATION); “active; positive” (Test System: AMES SALMONELLA TYPHIMURIUM, Strain/Indicator: TA100(1,8-DNP6), Metabolic Activation: RAT, LIVER, S-9, AROCLOR 1254, Method: PREINCUBATION); “active; positive” (Test System: AMES SALMONELLA TYPHIMURIUM, Strain/Indicator: TA100(NR), Metabolic Activation: NONE, Method: PREINCUBATION); “active; positive” (Test System: AMES SALMONELLA TYPHIMURIUM, Strain/Indicator: TA100(NR), Metabolic Activation: RAT, LIVER, S-9, AROCLOR 1254, Method: PREINCUBATION). The mutagenic call reads like this: (Test System: AMES SALMONELLA TYPHIMURIUM, Strain/Indicator: TA100, Metabolic Activation: NONE, Method: PREINCUBATION) “active; positive”; under setting [2], “active; positive”; (Test System: AMES SALMONELLA TYPHIMURIUM, Strain/Indicator: TA100, Metabolic Activation: RAT, LIVER, S-9, AROCLOR 1254, Method: PREINCUBATION) “active; positive”; (Test System: AMES SALMONELLA TYPHIMURIUM, Strain/Indicator: TA100, Metabolic Activation: RAT, LIVER, S-9, AROCLOR 1254, Method: STANDARD PLATE) “active; positive”; (Test System: AMES SALMONELLA TYPHIMURIUM, Strain/Indicator: TA1535, Metabolic Activation: NONE, Method: PREINCUBATION) “active; positive”; (Test System: AMES SALMONELLA TYPHIMURIUM, Strain/Indicator: TA1537, Metabolic Activation: NONE, Method: PREINCUBATION) “active; positive”. Moreover, under “Test System: AMES SALMONELLA TYPHIMURIUM, Strain/Indicator: TA1538, Metabolic Activation: NONE, Method: PREINCUBATION”, the mutagenic call is “active; positive”.
